Assay results taken from patent US4296108A, “2,2-Dichlorocyclopropyl-methyl-phosphoric acid derivatives” (priority 1979, dated 1981).

Columns and labels:
Assay type in all cases: in vivo
[1] = system: caterpillars of the diamondback moth (Plutella maculipennis); test: Contact action and effect of ingested food on caterpillars of the diamondback moth (Plutella maculipennis); details: 4th stage caterpillars, 48 hours, read-out: Kill rate; for mortality at 0.02 %: 0.02 wt % in emulsion; for mortality at 0.01 %: 0.01 wt % in emulsion; for mortality at 0.001 %: 0.001 wt % in emulsion; for mortality at 0.002 %: 0.002 wt % in emulsion
Procedure: Contact action and effect of ingested food on caterpillars of the diamondback moth (Plutella maculipennis)
Leaves of young cabbage plants are dipped for 3 seconds in aqueous emulsions of the active ingredients and, after excess liquid has been briefly allowed to drip off, placed on a moist filter paper in a Petri dish. 10 caterpillars of the 4th stage are then placed on each leaf.
(§1) The action is assessed after 48 hours.

[2] = system: bean aphids (Aphis fabae); test: Contact action on bean aphids (Aphis fabae); spray experiment; details: 48 hours; for mortality at 0.005 %: 0.005 wt % in formulation; for mortality at 0.01 %: 0.01 wt % in formulation
Procedure: Contact action on bean aphids (Aphis fabae); spray experiment
Potted bean plants (Vicia faba) with extensive bean aphid colonies are sprayed to runoff in a spray booth with aqueous formulations of the active ingredients.
as §1

[3] = system: cockroaches (Blatta orientalis); test: whole plant or invertebrate; details: 48 hours; for mortality at 0.2 mg: 0.2 mg active ingredient per jar; for mortality at 0.1 mg: 0.1 mg active ingredient per jar
Procedure: Contact action on cockroaches (Blatta orientalis)
The bottom of 1-liter preserving jars is treated with acetonic solutions of the active ingredients. After the solvent has evaporated, 5 adult cockroaches are placed in each jar, and the kill rate is determined after 48 hours.

[4] = system: ticks (Ornithodorus moubata); test: Contact action on ticks (Ornithodorus moubata); details: 3rd larval stage, 48 hours
Procedure: Contact action on ticks (Ornithodorus moubata)
Ticks in the 3rd larval stage are placed in paper bags and dipped for 3 seconds in the emulsion under investigation. The bags are then suspended. The action on the ticks is assessed after 48 hours.

[5] = system: houseflies (Musca domestica); test: whole plant or invertebrate; details: 4 hours; for mortality at 0.02 mg: 0.02 mg active ingredient per dish
Procedure: Continuous contact action on houseflies (Musca domestica)
Both covers and bottoms of Petri dishes 10 cm in diameter are lined with a total per dish of 2 ml of acetonic solutions of the active ingredients. After the solvent has evaporated (about 30 mins.), 10 flies are introduced into each dish. The kill rate is determined after 4 hours.

[6] = system: houseflies (Musca domestica); test: Contact action on houseflies (Musca domestica), topical to ventral abdomen; details: 1 μl in acetone to ventral abdomen; 4-day old imagoes; 4 hours; worked out by graph
Procedure: Contact action on houseflies (Musca domestica)
1 μl of the active ingredients dissolved in acetone is administered by means of a microsyringe to the ventral abdomen of 4-day old imagoes under slight CO2 narcosis.
20 animals treated in the same way are then placed in a plastic bag having a volume of approx. 500 ml. After 4 hours, the animals in supine position are counted and the LD50 is worked out by means of a graph.

[7] = system: root-knot nematodes (Meloidogyne incognita); test: Action on root-knot nematodes (Meloidogyne incognita); details: cucumber, 6 to 8 weeks
Procedure: Action on root-knot nematodes (Meloidogyne incognita)
Garden soil heavily infested with Meloidogyne incognita is split into 200 g portions which are intimately mixed with 30 ml of aqueous active ingredient formulations and filled into plastic pots. Two cucumber seeds are then placed in the soil prepared in this manner. The temperature is not allowed to go below +22° C.
After 6 to 8 weeks root attack is assessed.

[8] = Aphis fabae, 0.02 wt % in formulation, read-out: Kill rate
[9] = Aphis fabae, read-out: Kill rate
[10] = Musca domestica, read-out: Kill rate
[11] = Blatta orientalis, read-out: Kill rate
[12] = Musca domestica, 0.2 mg active ingredient per dish, read-out: Kill rate

## CCOP(=O)(OCC1C(C)(C)C1(Cl)Cl)Oc1ccc([N+](=O)[O-])cc1 (centres unmarked) [Active ingredient 1, O-ethyl-O-[(2,2-dichloro-3,3-dimethyl-cyclopropyl)-methyl]-O-(4-nitrophenyl)phosphate]
[1]
  mortality at 0.02 %: 100%
[2]; [8]
  mortality at 0.02 %: 100%
[3]; Blatta orientalis, 0.25 mg active ingredient per jar, 5 adult cockroaches, read-out: Kill rate
  mortality at 0.25 mg: 80%
[4]; 10.0 ppm in emulsion
  Kill rate: 100%

## COP(=O)(OCC1CC1(Cl)Cl)Oc1ccccc1[N+](=O)[O-] (centres unmarked) [Active ingredient 3, O-methyl-O-[(2,2-dichlorocyclopropyl)-methyl]-O-(2-nitrophenyl)phosphate]
[2]; [9]
  mortality at 0.005 %: 100%

## COP(=O)(OCC1CC1(Cl)Cl)Oc1cc(Cl)c(Cl)cc1Cl (centres unmarked) [Active ingredient 4, O-methyl-O-[(2,2-dichloro-cyclopropyl)-methyl]-O-(2,4,5-trichlorophenyl)phosphate]
[2]; [9]
  mortality at 0.01 %: ~90%
[5]; [10]
  mortality at 0.02 mg: 100%
[6]
  LD50: 0.055 μg/fly
[4]; 5.0 ppm in emulsion
  Kill rate: 100%

## COP(=S)(OC)Oc1cc(Cl)c(Cl)cc1Cl [III]
[1]
  mortality at 0.02 %: 50%
[3]; Blatta orientalis, 0.5 mg active ingredient per jar, read-out: Kill rate
  mortality at 0.5 mg: 100%
[6]
  LD50: 0.13 μg/fly

## CCOP(=S)(Oc1ccc(Cl)cc1Cl)c1ccccc1 (centres unmarked) [II]
[2]; 0.02 wt % in formulation
  Kill rate: < 80%
[3]; 1.0 mg active ingredient per jar
  Kill rate: ineffective
[5]; 0.2 mg active ingredient per dish
  Kill rate: ineffective

## COP(=S)(OC)Oc1ccc([N+](=O)[O-])c(C)c1 [IV]
[3]; 0.25 mg active ingredient per jar, 5 adult cockroaches
  Kill rate: ineffective

## CCOP(=S)(OCC)SCC1CC1(Cl)Cl (centres unmarked) [I]
[7]; 0.1 % active ingredient concentration, ditto mark repeats "no root-knots"
  root attack (root-knots): sporadic root-knots
[1]; 0.1 wt % in emulsion
  mortality at 0.1 %: 50%
[2]; Aphis fabae, 0.1 wt % in formulation, read-out: Kill rate
  mortality at 0.1 %: < 50%
[3]; Blatta orientalis, 5.0 mg active ingredient per jar, read-out: Kill rate
  mortality at 5 mg: 100%
[5]; Musca domestica, 2.0 mg active ingredient per dish, read-out: Kill rate
  mortality at 2 mg: 100%

## COP(=O)(OCC1C(C)(C)C1(Cl)Cl)Oc1ccc([N+](=O)[O-])cc1 (centres unmarked) [compound 7]
[1]
  mortality at 0.01 %: 80%
[2]; [9]
  mortality at 0.01 %: ~90%
[3]; [11]
  mortality at 0.2 mg: 100%
[5]; [12]
  mortality at 0.2 mg: 100%
[4]; 10.0 ppm in emulsion
  Kill rate: 100%

## COP(=O)(OCC1(C)CC1(Cl)Cl)Oc1ccc([N+](=O)[O-])cc1 (centres unmarked) [compound 10]
[1]
  mortality at 0.01 %: 100%
[2]; [9]
  mortality at 0.01 %: 100%
[3]; Blatta orientalis, 0.04 mg active ingredient per jar, read-out: Kill rate
  mortality at 0.04 mg: 100%
[5]; [12]
  mortality at 0.2 mg: 100%
[4]; 10.0 ppm in emulsion
  Kill rate: 100%

## COP(=O)(OCC1C(C)(C)C1(Cl)Cl)Oc1ccccc1[N+](=O)[O-] (centres unmarked) [compound 14]
[4]; 10.0 ppm in emulsion
  Kill rate: 100%

## COP(=O)(OCC1(C)CC1(Cl)Cl)Oc1cc(Cl)c(Cl)cc1Cl (centres unmarked) [compound 16]
[7]; 0.05 % active ingredient concentration
  root attack (root-knots): no root-knots

## COP(=O)(OCC1C(C)(C)C1(Cl)Cl)Oc1ccc(SC)cc1 (centres unmarked) [compound 17]
[5]; [12]
  mortality at 0.2 mg: 80%
[4]; 2.5 ppm in emulsion
  Kill rate: 100%

## CCOP(=O)(OCC1C(C)(C)C1(Cl)Cl)Oc1ccc(SC)cc1 (centres unmarked) [compound 18]
[4]; 2.5 ppm in emulsion
  Kill rate: 100%

## CCOP(=O)(OCC1C(C)(C)C1(Cl)Cl)Oc1ccc(SC)c(C)c1 (centres unmarked) [compound 19]
[4]; 10.0 ppm in emulsion
  Kill rate: 100%

## COP(=O)(OCC1C(C)(C)C1(Cl)Cl)Oc1ccc(SC)c(C)c1 (centres unmarked) [compound 20]
[4]; 2.5 ppm in emulsion
  Kill rate: 100%

## COP(=O)(OCC1(C)CC1(Cl)Cl)Oc1ccc(SC)cc1 (centres unmarked) [compound 21]
[3]; [11]
  mortality at 0.1 mg: 100%
[5]; [12]
  mortality at 0.2 mg: 100%
[4]; 1.0 ppm in emulsion
  Kill rate: 100%

## COP(=O)(OCC1CC1(Cl)Cl)Oc1ccc(C#N)cc1 (centres unmarked) [compound 23]
[1]
  mortality at 0.001 %: 80%
[2]; [9]
  mortality at 0.005 %: ~90%
[3]; [11]
  mortality at 0.1 mg: 100%
[5]; [10]
  mortality at 0.02 mg: 100%
[6]
  LD50: 0.073 μg/fly
[4]; 1.0 ppm in emulsion
  Kill rate: 100%

## COP(=O)(OCC1CC1(Cl)Cl)Oc1ccc(SC)cc1 (centres unmarked) [compound 24]
[1]
  mortality at 0.002 %: 80%
[2]; Aphis fabae, 0.002 wt % in formulation, read-out: Kill rate
  mortality at 0.002 %: 100%
[3]; [11]
  mortality at 0.1 mg: 100%
[5]; [10]
  mortality at 0.02 mg: 100%
[6]
  LD50: 0.051 μg/fly
[4]; 1.0 ppm in emulsion
  Kill rate: 100%

## COP(=O)(OCC1CC1(Cl)Cl)Oc1ccc(SC)c(C)c1 (centres unmarked) [compound 25]
[1]
  mortality at 0.002 %: 80%
[2]; [9]
  mortality at 0.005 %: 100%
[3]; [11]
  mortality at 0.2 mg: 100%
[5]; [10]
  mortality at 0.02 mg: 80%
[4]; 10.0 ppm in emulsion
  Kill rate: 100%

## COP(=O)(OCC1CC1(Cl)Cl)Oc1ccc(Cl)cc1Cl (centres unmarked) [compound 26]
[2]; [8]
  mortality at 0.02 %: 100%
[5]; [12]
  mortality at 0.2 mg: 100%

## COP(=O)(OCC1CC1(Cl)Cl)Oc1ccc([N+](=O)[O-])cc1 (centres unmarked) [compound 27]
[1]
  mortality at 0.001 %: 100%
[2]; [9]
  mortality at 0.005 %: ~90%
[3]; Blatta orientalis, 0.02 mg active ingredient per jar, read-out: Kill rate
  mortality at 0.02 mg: 80%
[5]; [10]
  mortality at 0.02 mg: 100%
[6]
  LD50: 0.057 μg/fly
[4]; 1.0 ppm in emulsion
  Kill rate: 100%

## COP(=O)(OCC1C(C)C1(Cl)Cl)Oc1cc(Cl)c(Cl)cc1Cl (centres unmarked) [compound 28]
[2]; [8]
  mortality at 0.02 %: 100%
[5]; [12]
  mortality at 0.2 mg: 80%

## COP(=O)(OCC1C(C)C1(Cl)Cl)Oc1ccc(Cl)cc1Cl (centres unmarked) [compound 29]
[2]; [8]
  mortality at 0.02 %: 100%

## COP(=O)(OCC1C(C)C1(Cl)Cl)Oc1ccc(SC)cc1 (centres unmarked) [compound 30]
[2]; [9]
  mortality at 0.01 %: 100%
[5]; [12]
  mortality at 0.2 mg: 100%
[4]; 10.0 ppm in emulsion
  Kill rate: 100%

## COP(=O)(OCC1C(C)C1(Cl)Cl)Oc1ccc([N+](=O)[O-])cc1 (centres unmarked) [compound 31]
[1]
  mortality at 0.01 %: 80%
[3]; [11]
  mortality at 0.2 mg: 100%
[4]; 5.0 ppm in emulsion
  Kill rate: 100%

## COP(=O)(OCC1(C)CC1(Cl)Cl)Oc1ccc([N+](=O)[O-])cc1Cl (centres unmarked) [compound 32]
[2]; Aphis fabae, 0.008 wt % in formulation, read-out: Kill rate
  mortality at 0.008 %: 100%
[5]; [12]
  mortality at 0.2 mg: 100%
[4]; 10.0 ppm in emulsion
  Kill rate: 100%

## COP(=O)(OCC1(C)CC1(Cl)Cl)Oc1ccc([N+](=O)[O-])c(C)c1 (centres unmarked) [compound 33]
[2]; [9]
  mortality at 0.01 %: 100%
[5]; [12]
  mortality at 0.2 mg: 80%
